Counter-ions that a name gives are not always drawn.
Test system: male Sprague Dawley rats
Assay: Rat mustard oil model of visceral pain
Assay type: in vivo
Details: data combined from two studies
Experimental: All behavioural responses consistent with the presence of pain were determined following intra rectal injection of mustard oil in male Sprague Dawley rats. Typical behavioural responses consistent with the presence of pain following intra-colonic mustard oil injection include: arching, abdominal lifting, abdominal tensing, stretching, extending the rear leg (when lying down), raising and lowering the testicles, tip-toeing and writhing.
Male Sprague Dawley rats (130 g-160 g) were briefly sedated with 50% oxygen/50% carbon dioxide and 0.2 ml of 3% mustard oil injected into the colorectum, 1.5 cm from the anus. The anus was plugged with vaseline and animals placed in observational cages to which they had previously been acclimatised for 45 minutes prior to mustard oil injection. The number of visceral pain related behaviours, which consisted primarily of abdominal arching, were counted over a 25 minute period and the animals culled by cervical dislocation.
In separate studies, the effects of alosetron (0.1, 0.3 and 1.0 mg/kg n=10 per group), gabapentin (10, 30 and 100 mg/kg n=10 per group) and amitriptyline (3, 10 and 30 mg/kg n=9-10 per group) or vehicle (saline for alosetron and amitriptyline 10% 1-methyl-2-pyrolidone in saline for gabapentin n=10 per study) given sub cutaneously 15 minutes prior to injection of 3% mustard oil were examined on pain behaviour. Results are expressed as mean reduction in percentage of behaviours compared to vehicle treated animals and were statistically compared to vehicle treated animals using a one way ANOVA with Dunnett's comparison, p<0.05 considered significant.
The effect of the compound of Example 1 (0.1, 0.3, 1.0, 3.0, 10 and 30 mg/kg, n 9-20 per dosage) or vehicle (1% methyl cellulose, n=20) given orally 60 minutes prior to injection of mustard oil (3% mustard oil, 70% ethanol in saline) were examined on pain behaviour. The total number of visceral pain related behaviours, which consisted primarily of abdominal arching, were counted over a 25 minute period and the animals culled by cervical dislocation. Behaviours were normalised as the percentage of the vehicle group mean and expressed as mean percentage reductions. Data was combined from two studies and normalised as the percentage of the vehicle group mean for each individual study and expressed as a mean percentage reduction for both studies. Percentage reduction of behaviours compared to vehicle treated animals were analysed statistically using a one way ANOVA with Dunnett's comparison, p<0.05 considered significant.

For `CC(C)(NCc1cc(-c2ccc(C(F)(F)F)cc2)ccn1)C(N)=O` [Example E1, 2-Methyl-N^2-({4-[4-trifluoromethyl)phenyl]-2-pyridinyl}methyl)alaninamide hydrochloride], the “reduction in behaviours compared to vehicle treated animals” value (“reduction in behaviours” below) (0.1 mg/kg orally 60 minutes prior to mustard oil) was 16%, the “reduction in behaviours” value (0.3 mg/kg orally 60 minutes prior to mustard oil) was 24% and the “reduction in behaviours” value (1.0 mg/kg orally 60 minutes prior to mustard oil) was 41%. For the same compound, the “reduction in behaviours” value (3.0 mg/kg orally 60 minutes prior to mustard oil) was 64%, the “reduction in behaviours” value (10 mg/kg orally 60 minutes prior to mustard oil) was 76% and the “reduction in behaviours” value (30 mg/kg orally 60 minutes prior to mustard oil) was 85%.
